Test results from patent publication US20020002171A1, “Materials and methods for killing nematodes and nematode eggs” (priority 2000, published 2002).

Test system: Caenorhabditis elegans
Experiment: C. elegans L1 nematicidal dose response in 96-well plates, 5 day visual score (Example 2; same procedure for Example 7, Table 3)
Type: in vivo
Set-up: key to 5 Day Visual Score V1 / 5 Day Visual Score V2 / 5 Day Visual Score V3 / 5 Day Visual Score V4 / 5 Day Visual Score V6 / 5 Day Visual Score V5 / Initial HTS Run Visual Score / Follow-up HTS Run Visual Score: Dead: only stiff L1s (no movement); Dead (L4): worms are dead, but at a later larval stage; majority of worms are L1 (based on size) worms move when plate is tapped; majority of worms are L2 (based on size); majority of worms are L3 (based on size); majority of worms are L4 (based on size); AD: majority of worms are adult; #AD: 5 adult worms or less; B!: sterile (0-25 progeny); B: low broodsize (25-100 progeny); ˜B: moderate broodsize (100-250 progeny); <: reduced broodsize (250-500 progeny); OK: no effect (˜1000+ progeny)
How it was run: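 L1 larvae, 20 per well in NGM with 1% E. coli HB101 and antibiotic/antimycotic, exposed to six 3-fold dilutions from 70 μM down to 0.3 μM (1.4% DMSO at top). Held at 20° C; viability scored visually under 100× dissecting microscope on day 5.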

[1] = dose response, dilution V1, day 5
[2] = dose response, dilution V2, day 5
[3] = dose response, dilution V3, day 5
[4] = dose response, dilution V4, day 5
[5] = dose response, dilution V5, day 5
[6] = dose response, dilution V6, day 5
[7] = 0.3 μM, C. elegans L1, scored day 5
[8] = 2.6 μM, C. elegans L1, scored day 5
[9] = dose response, dilution V2, 5 day
[10] = dose response, dilution V3, 5 day
[11] = dose response, dilution V4, 5 day
[12] = dose response, dilution V5, 5 day
[13] = dose response, dilution V6, 5 day

SMILES	Follow-up HTS Run % Run	Follow-up HTS Run Visual Score	Follow-up HTS Run mOD	Initial HTS Run % Run	Initial HTS Run Visual Score	Initial HTS Run mOD	5 Day Visual Score V1 [1]	5 Day Visual Score V2 [2]	5 Day Visual Score V3 [3]	5 Day Visual Score V4 [4]	5 Day Visual Score V5 [5]	5 Day Visual Score V6 [6]	further results
CC1(C)CC(O)CC(C)(CNc2nsc(N3CCN(c4ccc(F)cc4)CC3)n2)C1 (centres unmarked) [compound 244]	104%	Dead	167 mOD	125%	Dead	138 mOD	Dead	Dead	< (reduced broodsize (250-500 progeny))	OK (no effect (˜1000+ progeny))	OK (no effect (˜1000+ progeny))	OK (no effect (˜1000+ progeny))	–
CCCCCCCCCCNc1nsc(N2CCN(c3ncccn3)CC2)n1 [compound 274]	116%	Dead	187 mOD	111%	Dead	122 mOD	Dead	Dead	–	B (low broodsize (25-100 progeny))	OK (no effect (˜1000+ progeny))	OK (no effect (˜1000+ progeny))	–
CCCCOc1ccc(-c2noc(C3CCC(NC(=O)c4ccc5c(c4)OCO5)CC3)n2)cc1 (centres unmarked) [AKC 103]	–	–	–	–	–	–	–	–	–	–	–	–	5 Day Visual Score V6 [7]: < (reduced broodsize (250-500 progeny)); 5 Day Visual Score V5 (0.9 μM, C. elegans L1, scored day 5): L4/#AD/B; 5 Day Visual Score V4 [8]: B (low broodsize (25-100 progeny)); 5 Day Visual Score V3 (7.8 μM, C. elegans L1, scored day 5): Dead(L4); 5 Day Visual Score V2 (23.3 μM, C. elegans L1, scored day 5): Dead(L3/L4)
CC1CC(C)CN(c2nc(NCc3c(F)cccc3F)ns2)C1 (centres unmarked) [compound 245]	117%	B! (sterile (0-25 progeny))	189 mOD	103%	B!-Few Eggs	113 mOD	L2/Dead(L3)	#AD/˜B	< (reduced broodsize (250-500 progeny))	OK (no effect (˜1000+ progeny))	OK (no effect (˜1000+ progeny))	OK (no effect (˜1000+ progeny))	–
OCC1CCCN1c1nc(NCc2ccc(C(F)(F)F)cc2)ns1 (centres unmarked) [compound 316]	106%	L2	171 mOD	100%	Dead(L3)	110 mOD	–	–	–	–	–	–	5 Day Visual Score V1 (dose response, dilution V1, 5 day): Dead; 5 Day Visual Score V2 [9]: Dead(L3); 5 Day Visual Score V3 [10]: ˜B (moderate broodsize (100-250 progeny)); 5 Day Visual Score V4 [11]: < (reduced broodsize (250-500 progeny)); 5 Day Visual Score V5 [12]: OK (no effect (˜1000+ progeny)); 5 Day Visual Score V6 [13]: OK (no effect (˜1000+ progeny))
CCN(c1nc(NCc2ccccc2)ns1)C1CCCCC1 [compound 325]	111%	L4/AD/B	179 mOD	103%	L3/L4/AD/B	113 mOD	–	–	–	–	–	–	5 Day Visual Score V2 [9]: #AD/˜B; 5 Day Visual Score V3 [10]: < (reduced broodsize (250-500 progeny)); 5 Day Visual Score V4 [11]: < (reduced broodsize (250-500 progeny)); 5 Day Visual Score V5 [12]: < (reduced broodsize (250-500 progeny)); 5 Day Visual Score V6 [13]: OK (no effect (˜1000+ progeny))
CCCCOc1ccc(C(=O)N2CC(OCCCc3ccccc3)CC2C(=O)NCc2ccccc2Br)cc1 (centres unmarked) [AKC 102]	–	–	–	–	–	–	–	–	–	–	–	–	5 Day Visual Score V6 [7]: B (low broodsize (25-100 progeny)); 5 Day Visual Score V4 [8]: L3
OCC1CCCN(c2nc(NCc3ccccc3)ns2)C1 (centres unmarked) [compound 263]	104%	–	167 mOD	110%	–	121 mOD	–	˜B (moderate broodsize (100-250 progeny))	OK (no effect (˜1000+ progeny))	OK (no effect (˜1000+ progeny))	OK (no effect (˜1000+ progeny))	OK (no effect (˜1000+ progeny))	–
CCCCCCCCCCNc1nsc(N(CC(CC)CCCC)CC(CC)CCCC)n1 (centres unmarked) [compound 278]	109%	Dead	175 mOD	112%	Dead	123 mOD	Dead	Dead	˜B (moderate broodsize (100-250 progeny))	OK (no effect (˜1000+ progeny))	OK (no effect (˜1000+ progeny))	OK (no effect (˜1000+ progeny))	–
CC(O)CN(CC(C)O)c1nc(NCc2ccc(C(F)(F)F)cc2)ns1 (centres unmarked) [compound 252]	100%	L2 - Dead L3	161 mOD	100%	Dead(L3)	110 mOD	Dead(L3)	Dead(L3)	–	< (reduced broodsize (250-500 progeny))	< (reduced broodsize (250-500 progeny))	< (reduced broodsize (250-500 progeny))	–
CCCCN(Cc1ccccc1)c1nc(NCc2c(F)cccc2F)ns1 [compound 298]	143%	–	231 mOD	125%	L2	137 mOD	L4#AD/B	˜B (moderate broodsize (100-250 progeny))	OK (no effect (˜1000+ progeny))	OK (no effect (˜1000+ progeny))	OK (no effect (˜1000+ progeny))	OK (no effect (˜1000+ progeny))	–
CCN(Cc1ccccc1)c1nc(NCCc2ccc(F)cc2)ns1 [compound 241]	88%	B (low broodsize (25-100 progeny))	141 mOD	114%	–	125 mOD	–	˜B (moderate broodsize (100-250 progeny))	OK (no effect (˜1000+ progeny))	OK (no effect (˜1000+ progeny))	OK (no effect (˜1000+ progeny))	OK (no effect (˜1000+ progeny))	–
Cc1cccc(C)c1N1CCN(c2nsc(N3CC(C)CC(C)C3)n2)CC1 (centres unmarked) [compound 219]	74%	Dead/1AD/B!	119 mOD	90%	4AD/B	99 mOD	Dead	–	–	OK (no effect (˜1000+ progeny))	OK (no effect (˜1000+ progeny))	OK (no effect (˜1000+ progeny))	–
